Source: patent US20260166000A1, “1,8-CINEOLE CONTAINING COMPOSITION FOR THERAPEUTIC USE” (Maria Clementine Martin Klosterfrau Vertriebsgesellschaft …, priority 2020, published 2026)
“Also recorded” adds a separate entry of the source.

Key:
[1] = tested on: cellular complexes of circulating platelets (CD41) with leukocytes; experiment: Flow cytometry of cellular complexes of circulating platelets with leukocytes in blood; type: in vivo, human; conditions: for cellular complexes, neutrophils (Neutros), after / cellular complexes, lymphocytes (Lymphos), after / cellular complexes, eosinophils (Eosinos), after / cellular complexes, monocytes (Monos), after: blood of patients with polyposis nasi, after 2-week administration
Description: Further, these cellular complexes will be specified in more detail by flow cytometer with respect to different leukocyte populations and with respect to the influence of 1,8-cineole.

[2] = tested on: Chronic polyposis otitis media without cholesteatoma; experiment: Clinical use in chronic polyposis otitis media without cholesteatoma; type: in vivo, human
Protocol: (§1) In addition, the effect of 1,8-cineole is further investigated on the basis of the following areas of application, with 200 mg of 1,8-cineole being administered 3 times a day for the period indicated in each case (Soledum® forte): • 1. Chronic polypous sinusitis • 2. Chronic recurrent catarrhal sinusitis • 3. Chronic polyposis otitis media without cholesteatoma • 4. Chronic polyposis otitis media with cholesteatoma • Ad 1.

[3] = tested on: Patients with persistent bronchial asthma; experiment: Clinical use in persistent bronchial asthma as add-on therapy; type: in vivo, human
[4] = tested on: Chronic polypous sinusitis; experiment: Clinical use in chronic polypous sinusitis; type: in vivo, human
Protocol: as §1

[5] = tested on: intestinal microbiome; experiment: Microbiome sequencing of stool samples, principal coordinates analysis (PCoA); type: in vivo, human; conditions: patients with polyposis nasi; before vs after 2-week ingestion, 200 mg 3 times a day (Soledum forte)
Protocol: (§2) As part of the studies, the stool samples of patients with polyposis nasi are analyzed under the influence of 1,8-cineole. For this purpose, a stool sample is first taken before starting the administration of 1,8-cineole and then again after 2 weeks of taking 1,8-cineole 3 times a day (Soledum® forte, content of 1,8-cineole: 200 mg).
(§3) Stool Stabilizer (company: Stratec Molecular) is added to the stool samples and initially stored at a temperature of −20° C. until further processing. Subsequent DNA extraction is performed using the PSP Spin Stool DNA Plus kit according to the manufacturer's instructions (Stratec Molecular). Finally, the isolated DNA is used for microbiome sequencing (TG MiSeq Reagent Kit v3 & NEBNext® Library Quant Kit for Illumina) and analyzed.
The results are illustrated in FIG. 1 in the form of principal coordinate analysis (PCoA) of the examined stool samples of the patients (1 to 5) with polyposis nasi before (without labeling, unfilled circle symbols) and after 2-week ingestion of 1,8-cineole (marked with “*”, filled circle symbols).

[6] = tested on: patients with polyposis nasi; experiment: Patient perception and clinical therapy of polyposis nasi; type: in vivo, human
Protocol: In addition to the molecular biological investigations, the individual perception and quality of life of the patients with regard to the 2-week intake of 1,8-cineole is also surveyed. […] In 38 patients (23 men/15 women between 28 and 72 years, average age 54 years) each with polyposis nasi a therapy with 1,8-cineole was performed (3 times 200 mg 1,8-cineole in the form of capsules “Soledum® forte”).

[7] = tested on: Chronic recurrent catarrhal sinusitis; experiment: Clinical use in chronic recurrent catarrhal sinusitis; type: in vivo, human
Protocol: as §1

[8] = tested on: monocytes circulating in the blood; experiment: Flow cytometry of monocyte subtypes (CD14/CD16) in blood; type: in vivo, human
Protocol: The monocytes circulating in the blood can be divided into the three different subtypes, namely “classical”, “intermediate” and “non-classical”, on the basis of their surface proteins CD14 and CD16 by flow cytometry. In flow cytometry, cells are analyzed for cell size, granularity and fluorescent labeling of specific epitopes by passing specific lasers. This allows different cell populations to be differentiated and characterized. […] These observations are now comprehensively analyzed in additional patients individually by flow cytometer, especially under the influence of 1,8-cineole. […] In this regard, reference can also be made to FIG. 5A/B.

[9] = cited from earlier work
[10] = tested on: Lachnospiraceae, Bifidobacterium or Faecalibacterium; experiment: Microbiome sequencing of stool samples, bacterial genera; type: in vivo, human; conditions: patients with polyposis nasi; after 2-week therapy, 200 mg 3 times a day
Protocol: as §2, §3
(§4) Following this initial evaluation regarding existing alterations or changes in the intestinal microbiome of patients with polyposis nasi after 2-week ingestion of 1,8-cineole, a detailed evaluation of the microbiome sequencing performed will be performed regarding the bacterial genera identified.

[11] = tested on: bacterial genus Prevotella; experiment: as above; type: in vivo, human; conditions: patients with polyposis nasi; after 2-week ingestion, 200 mg 3 times a day
Protocol: as §2, §3, §4

[12] = tested on: genus Bacteroides; experiment: as above; type: in vivo, human; conditions: patients with polyposis nasi; after 2-week therapy, 200 mg 3 times a day
Protocol: as §2, §3, §4

[13] = tested on: bacteria of the family Ruminococcacea or the genus Ruminococcus; experiment: as above; type: in vivo, human; conditions: patients with polyposis nasi; after 2-week ingestion, 200 mg 3 times a day
Protocol: as §2, §3, §4

[14] = tested on: Chronic polyposis otitis media with cholesteatoma; experiment: Clinical use in chronic polyposis otitis media with cholesteatoma; type: in vivo, human
Protocol: as §1

[15] = 2-week administration, preoperatively, previously refractory otorrhea (local and systemic antibiotics)
[16] = after tympanoplasty, renewed otorrhea with recurrent perforation, 4-week administration
[17] = twelve weeks of continuous therapy
[18] = 200 mg 3 times a day, 2-week administration, preoperatively
[19] = 38 patients with polyposis nasi, 3 times 200 mg, Soledum forte capsules
[20] = one case, small polyps on the olfactory groove, after 2 weeks
[21] = 2-week administration, preoperatively
[22] = after tympanoplasty, renewed otorrhea with recurrent perforation, 4 weeks of administration

CC12CCC(CC1)C(C)(C)O2 [1,8-cineole, 1,3,3-trimethyl-2-oxabicyclo[2.2.2]octane]
cellular complexes, neutrophils (Neutros), after ([1]; Table 2 (data n2), before 5.37%): 5.09%
cellular complexes, lymphocytes (Lymphos), after ([1]; Table 2 (data n2), before 5.4%): 5.12%
cellular complexes, eosinophils (Eosinos), after ([1]; Table 2 (data n2), before 10.7%): 4.8%
cellular complexes, monocytes (Monos), after ([1]; Table 2 (data n2), before 16.8%): 6.28%
cellular complexes, eosinophils (Eosinos), after ([1]; data n1, before 7.3%): 5.92%
cellular complexes, lymphocytes (Lymphos), after ([1]; data n1, before 12.4%): 5.54%
cellular complexes, neutrophils (Neutros), after ([1]; data n1, before 13.9%): 5.02%
cellular complexes, monocytes (Monos), after ([1]; data n1, before 14.7%): 8.79%
monocyte complexes in blood ([1]; patients with polyposis nasi, after taking over a period of two weeks): massive reduction
otorrhea [2, 15]: decrease in otorrhea, allowing surgery
otorrhea [2, 16]: decrease in otorrhea
tympanic membrane [2, 16]: spontaneous tympanic membrane closure
tolerability ([3]; 4 times 200 mg/die perorally): well tolerated without side effects
lung function ([3]; 4 times 200 mg/die perorally, one week, with inhaled glucocorticoid, long-acting beta-2-sympathomimetic and theophylline): slight to moderate improvement
reduction of inhaled glucocorticoid requirements ([3]; 4 times 200 mg/die perorally, twelve weeks of continuous therapy): more than 50%
glucocorticoid use in some of the patients treated [3, 17]: temporarily discontinued altogether
need for betamimetics in some patients [3, 17]: significantly reduced
accompanying symptoms of the polyps (anterior and posterior watery rhinorrhea) [4, 18]: reduction of the accompanying symptoms
olfactory performance ([4]; 200 mg 3 times a day, 2-week administration, preoperatively, individual cases): In individual cases also improvement
wound healing ([4]; postoperative): positive influence
recurrences and systemic cortisone administration ([4]; postoperative, in combination with a nasal steroid): reduction of recurrences and systemic cortisone administration
shift of beta diversity (PCoA) of stool samples [5]: clear shift
nasal breathing [6, 19]: correspondingly improved
secretion drainage [6, 19]: significantly improved
nasal polyps [6, 20]: significant decrease
olfactory sensation [6, 20]: marked improvement
patients' response (individual perception and quality of life) ([6]; polyposis patients consulted, 2-week intake): predominantly positive
concomitant symptoms of polyps (anterior and posterior watery rhinorrhea) [7, 18]: decrease in concomitant symptoms
olfactory performance [7, 18]: significant improvement
use of nasal steroids ([7]; postoperative): reduction of nasal steroids
wound healing ([7]; postoperative): positive influence
monocyte distribution, additional patients analysed individually ([8]; additional patients, 2-week therapy (FIG. 5A/B)): restoration of the monocyte distribution
CD16 "classical" monocytes (CD16 neg.) ([8]; after 2-week therapy (FIG. 5A)): significant increase
"intermediate" monocytes (CD16 pos.) ([8]; after 2-week therapy (FIG. 5B)): clear decrease
distribution of monocyte subpopulations ([8]; patients with polyposis nasi, after 2-week intake, compared with healthy donors (FIG. 4)): marked normalization or reversion
solubility in water [9]: insoluble
occurrence of Lachnospiraceae, Bifidobacterium or Faecalibacterium [10]: certain changes or shifts with a tendency to increase
presence of Prevotella in the intestine [11]: significantly reduced; also recorded: almost complete disappearance
occurrence of Bacteroides in the intestinal microbiome [12]: significantly more abundant
bacteria of the family Ruminococcacea or genus Ruminococcus [13]: significant increase
cholesteatom masses [14, 21]: no reduction
inflamed mucosa of middle ear and mastoid [14, 21]: positive effect
concomitant otorrhea [14, 15]: decrease in concomitant otorrhea, allowing surgery
otorrhea [14, 22]: decrease of otorrhea
tympanic membrane [14, 22]: spontaneous tympanic membrane closure
